Measured values reported in PubChem BioAssay AID1845219 (Molecular Pharmacology Branch, DTP, NCI, 2023).

Tested on: SYO-1 tumor spheroids, viability % test/control
Assay: Anticancer human tumor SYO-1 cell line growth inhibition;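 further: spheroids exposed to agents for 7 days before viability read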;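 on viability, T/C: 100% = DMSO vehicle control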
Settings: spheroids with HUVEC and MSC; for IC50: curve of first compound; for viability, T/C: stronger effect = lower value; active means viability on the fitted dose curve at most 10% of control; inactive means the rest
In short: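 Single agents and combinations were tested on spheroids built from tumor cells plus HUVEC and hMSC, at half-log dilutions starting at or near clinical Cmax, else 10 microM; final DMSO 0.25% (v/v).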

[1] = second compound 1 µM, first compound 0.0316 µM
[2] = second compound 1 µM, first compound 0.1 µM
[3] = second compound 1 µM, first compound 0.316 µM
[4] = second compound 1 µM, first compound 1 µM
[5] = second compound 1 µM, first compound 3.16 µM
[6] = second compound 1 µM, first compound 10 µM
[7] = second compound 3.16 µM, first compound 0.0316 µM
[8] = second compound 3.16 µM, first compound 0.1 µM
[9] = second compound 3.16 µM, first compound 0.316 µM
[10] = second compound 3.16 µM, first compound 1 µM
[11] = second compound 3.16 µM, first compound 3.16 µM
[12] = second compound 3.16 µM, first compound 10 µM
[13] = second compound 10 µM, first compound 0.0316 µM
[14] = second compound 10 µM, first compound 0.1 µM
[15] = second compound 10 µM, first compound 0.316 µM
[16] = second compound 10 µM, first compound 1 µM
[17] = second compound 10 µM, first compound 3.16 µM
[18] = second compound 10 µM, first compound 10 µM
[19] = second compound 31.6 µM, first compound 0.0316 µM
[20] = second compound 31.6 µM, first compound 0.1 µM
[21] = second compound 31.6 µM, first compound 0.316 µM
[22] = second compound 31.6 µM, first compound 1 µM
[23] = second compound 31.6 µM, first compound 3.16 µM
[24] = second compound 31.6 µM, first compound 10 µM
[25] = second compound 100 µM, first compound 0.0316 µM
[26] = second compound 100 µM, first compound 0.1 µM
[27] = second compound 100 µM, first compound 0.316 µM
[28] = second compound 100 µM, first compound 1 µM
[29] = second compound 100 µM, first compound 3.16 µM
[30] = second compound 100 µM, first compound 10 µM

CC(C)n1c(=O)n(C)c2cnc3cc(F)c(-c4ccc(OCCCN5CCCCC5)nc4)cc3c21 + Cn1nnc2c(C(N)=O)ncn2c1=O
9.26 µM: IC50 (second compound 10 µM)
7.88 µM: IC50 (second compound 31.6 µM)
> 10 µM: IC50 (second compound 1 µM) | IC50 (second compound 3.16 µM) | IC50 (second compound 100 µM)
inactive: viability, T/C [1] 100% | viability, T/C [2] 101% | viability, T/C [3] 103% | viability, T/C [4] 103% | viability, T/C [5] 101% | viability, T/C [6] 59.1% | viability, T/C [7] 105% | viability, T/C [8] 104% | viability, T/C [9] 106% | viability, T/C [10] 104% | viability, T/C [11] 103% | viability, T/C [12] 52% | viability, T/C [13] 105% | viability, T/C [14] 100% | viability, T/C [15] 103% | viability, T/C [16] 108% | viability, T/C [17] 102% | viability, T/C [18] 46.3% | viability, T/C [19] 106% | viability, T/C [20] 113% | viability, T/C [21] 106% | viability, T/C [22] 115% | viability, T/C [23] 104% | viability, T/C [24] 35.8% | viability, T/C [25] 108% | viability, T/C [26] 112% | viability, T/C [27] 106% | viability, T/C [28] 96.2% | viability, T/C [29] 103% | viability, T/C [30] 73%

CC1COCCN1c1cc(-c2ccnn2C)c2ccnc(-c3ccn[nH]3)c2n1 (stereo not given) + Cn1nnc2c(C(N)=O)ncn2c1=O
< 0.0316 µM: IC50 (second compound 1 µM) | IC50 (second compound 3.16 µM) | IC50 (second compound 10 µM) | IC50 (second compound 31.6 µM) | IC50 (second compound 100 µM)
inactive: viability, T/C [1] 41.1% | viability, T/C [7] 38.4% | viability, T/C [13] 20.3% | viability, T/C [19] 11.1%
active: viability, T/C [2] 5.35% | viability, T/C [3] 2.75% | viability, T/C [4] 1.62% | viability, T/C [5] 0.73% | viability, T/C [6] 0.7% | viability, T/C [8] 4.75% | viability, T/C [9] 3.22% | viability, T/C [10] 1.73% | viability, T/C [11] 7.91% | viability, T/C [12] 20% | viability, T/C [14] 3.73% | viability, T/C [15] 2.69% | viability, T/C [16] 1.48% | viability, T/C [17] 5.25% | viability, T/C [18] 21.1% | viability, T/C [20] 10.2% | viability, T/C [21] 2.45% | viability, T/C [22] 1.18% | viability, T/C [23] 7.18% | viability, T/C [24] 6.71% | viability, T/C [25] 2.97% | viability, T/C [26] 2.88% | viability, T/C [27] 1.91% | viability, T/C [28] 1.24% | viability, T/C [29] 0.77% | viability, T/C [30] 0.75%

COc1cc(C)[nH]c(=O)c1CN1CCc2c(Cl)cc(C(OC)C3COC3)c(Cl)c2C1=O (stereo not given) + Cn1nnc2c(C(N)=O)ncn2c1=O
inactive: viability, T/C [1] 110% | viability, T/C [2] 108% | viability, T/C [3] 97.7% | viability, T/C [4] 86.7% | viability, T/C [5] 81.1% | viability, T/C [6] 73.8% | viability, T/C [7] 110% | viability, T/C [8] 107% | viability, T/C [9] 99.5% | viability, T/C [10] 89.1% | viability, T/C [11] 77% | viability, T/C [12] 67.8% | viability, T/C [13] 108% | viability, T/C [14] 107% | viability, T/C [15] 97.6% | viability, T/C [16] 89.7% | viability, T/C [17] 76.2% | viability, T/C [18] 71.6% | viability, T/C [19] 119% | viability, T/C [20] 111% | viability, T/C [21] 95.1% | viability, T/C [22] 80.8% | viability, T/C [23] 69.6% | viability, T/C [24] 62.4% | viability, T/C [25] 106% | viability, T/C [26] 102% | viability, T/C [27] 69.7% | viability, T/C [28] 40.5% | viability, T/C [29] 41.7% | viability, T/C [30] 35.6%
> 10 µM: IC50 (second compound 1 µM) | IC50 (second compound 3.16 µM) | IC50 (second compound 10 µM) | IC50 (second compound 31.6 µM)
0.697 µM: IC50 (second compound 100 µM)

COc1ccc([C@@H](O)c2cc(-c3ncnc4cc(N5CCOCC5)ccc34)c(F)cc2Cl)nn1 + Cn1nnc2c(C(N)=O)ncn2c1=O
1.97 µM: IC50 (second compound 100 µM)
4.12 µM: IC50 (second compound 31.6 µM)
4.59 µM: IC50 (second compound 3.16 µM)
4.93 µM: IC50 (second compound 10 µM)
inactive: viability, T/C [1] 107% | viability, T/C [2] 112% | viability, T/C [3] 112% | viability, T/C [4] 107% | viability, T/C [5] 77.3% | viability, T/C [7] 101% | viability, T/C [8] 106% | viability, T/C [9] 108% | viability, T/C [10] 105% | viability, T/C [11] 68.3% | viability, T/C [12] 11.9% | viability, T/C [13] 108% | viability, T/C [14] 108% | viability, T/C [15] 110% | viability, T/C [16] 107% | viability, T/C [17] 74.6% | viability, T/C [18] 10.7% | viability, T/C [19] 116% | viability, T/C [20] 110% | viability, T/C [21] 111% | viability, T/C [22] 109% | viability, T/C [23] 59.4% | viability, T/C [24] 18.4% | viability, T/C [25] 113% | viability, T/C [26] 116% | viability, T/C [27] 107% | viability, T/C [28] 80.2% | viability, T/C [29] 29%
4.95 µM: IC50 (second compound 1 µM)
active: viability, T/C [6] 7.18% | viability, T/C [30] 2.71%

Cc1cc(C)c(CNC(=O)c2cc(-c3ccc(CN4CCOCC4)cc3)cc3c2cnn3C2CCCC2)c(=O)[nH]1 + Cn1nnc2c(C(N)=O)ncn2c1=O
7.99 µM: IC50 (second compound 100 µM)
inactive: viability, T/C [1] 106% | viability, T/C [2] 105% | viability, T/C [3] 110% | viability, T/C [4] 104% | viability, T/C [5] 106% | viability, T/C [6] 97% | viability, T/C [7] 103% | viability, T/C [8] 106% | viability, T/C [9] 103% | viability, T/C [10] 104% | viability, T/C [11] 105% | viability, T/C [12] 89.6% | viability, T/C [13] 103% | viability, T/C [14] 106% | viability, T/C [15] 106% | viability, T/C [16] 108% | viability, T/C [17] 101% | viability, T/C [18] 71.2% | viability, T/C [19] 106% | viability, T/C [20] 108% | viability, T/C [21] 107% | viability, T/C [22] 111% | viability, T/C [23] 105% | viability, T/C [24] 74.6% | viability, T/C [25] 107% | viability, T/C [26] 111% | viability, T/C [27] 107% | viability, T/C [28] 101% | viability, T/C [29] 76.1% | viability, T/C [30] 43.7%
> 10 µM: IC50 (second compound 1 µM) | IC50 (second compound 3.16 µM) | IC50 (second compound 10 µM) | IC50 (second compound 31.6 µM)

[2H]c1nc(C)nc([2H])c1-c1cc(NC[C@@H](C)c2cccc3c(C(=O)NC)ccnc23)ncn1 + Cn1nnc2c(C(N)=O)ncn2c1=O
inactive: viability, T/C [1] 105% | viability, T/C [2] 105% | viability, T/C [3] 102% | viability, T/C [4] 98.9% | viability, T/C [5] 93.3% | viability, T/C [6] 83% | viability, T/C [7] 110% | viability, T/C [8] 113% | viability, T/C [9] 105% | viability, T/C [10] 96.5% | viability, T/C [11] 90% | viability, T/C [12] 84.8% | viability, T/C [13] 109% | viability, T/C [14] 106% | viability, T/C [15] 106% | viability, T/C [16] 96.1% | viability, T/C [17] 90.2% | viability, T/C [18] 88.4% | viability, T/C [19] 115% | viability, T/C [20] 109% | viability, T/C [21] 110% | viability, T/C [22] 102% | viability, T/C [23] 96.4% | viability, T/C [24] 94% | viability, T/C [25] 113% | viability, T/C [26] 115% | viability, T/C [27] 111% | viability, T/C [28] 110% | viability, T/C [29] 93.7% | viability, T/C [30] 94.3%
> 10 µM: IC50 (second compound 1 µM) | IC50 (second compound 3.16 µM) | IC50 (second compound 10 µM) | IC50 (second compound 31.6 µM) | IC50 (second compound 100 µM)
